Where two headings read alike, the source gives them in different places.
What was measured:
Format in all cases: binding
[1] = biological target: T1, murine TRIM21 PRY-SPRY domain (Mus musculus, UniProt Q62191); assay: Differential scanning fluorimetry (DSF, ΔTm), mouse TRIM21 PRY-SPRY domain
T1 construct: mouse TRIM21 PRY-SPRY domain (residues V291-M470, UniProt-ID: Q62191); made in house; host or cells: E. coli BL21(DE3)
T1 sequence (Q62191 291-470): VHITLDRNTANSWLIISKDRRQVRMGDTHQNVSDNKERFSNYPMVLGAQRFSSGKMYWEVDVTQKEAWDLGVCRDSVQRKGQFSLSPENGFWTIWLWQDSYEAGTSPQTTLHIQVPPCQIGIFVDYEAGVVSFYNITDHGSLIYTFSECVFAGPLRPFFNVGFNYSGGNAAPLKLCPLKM
Protocol: (§1) Briefly, recombinant murine and human TRIM21 PRY-SPRY domain at a concentration of 8 μM were mixed with 2 mM compound in their respective SEC buffer. SYPRO Orange (5000×, Invitrogen) was added as a fluorescence probe (1 µl per mL). Subsequently, temperature-dependent protein unfolding profiles were measured using the QuantStudio™ 5 realtime PCR machine (Thermo Fisher). Excitation and emission filters were set to 465 nm and 590 nm, respectively. The temperature was raised with a step rate of 3 °C per minute. Data points were analysed with the internal software (Thermal Shift SoftwareTM Version 1.4, Thermo Fisher) using the Boltzmann equation to determine the inflection point of the transition curve.

[2] = biological target: T2, human TRIM21 PRY-SPRY domain (Homo sapiens, UniProt P19474); assay: Differential scanning fluorimetry (DSF, ΔTm), human TRIM21 PRY-SPRY domain
T2 construct: Human TRIM21 PRY-SPRY domain (residues V287-I465, UniProt-ID: P19474); His6 (N, cleaved yes); SUMO (N, cleaved yes); made in house; host or cells: E. coli BL21(DE3)
T2 sequence (P19474 287-465): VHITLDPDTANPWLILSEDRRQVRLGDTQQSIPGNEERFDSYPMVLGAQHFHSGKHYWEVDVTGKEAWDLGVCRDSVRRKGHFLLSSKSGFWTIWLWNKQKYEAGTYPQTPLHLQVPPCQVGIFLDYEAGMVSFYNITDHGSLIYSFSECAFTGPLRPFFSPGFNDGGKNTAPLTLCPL
Protocol: as §1

His-mTRIM21 PRYSPRY = biological target: T3, His-mTRIM21 PRYSPRY (Mus musculus, UniProt Q62191); assay: SPR fragment screening and dose response, mouse TRIM21 PRY-SPRY
T3 construct: mouse TRIM21 PRY-SPRY domain (residues V291-M470, UniProt-ID: Q62191); made in house; host or cells: E. coli BL21(DE3)
T3 sequence (Q62191 291-470): T1 sequence (Q62191 291-470)
Protocol: (§2) His-mTRIM21 PRYSPRY and His-SUMO-hTRIM21 PRY-SPRY were immobilized onto flow channels (FC) FC2, FC3, and FC4 of a Series S sensor chip NTA (Cytiva). […] Proteins (10–20 µg mL^−1 in HBS-P+) were injected at 10 µL min^−1 to achieve response levels of 3500–4300 RU for mTRIM21 and 3600–4000 RU for hTRIM21. Flow channel 1 (FC1) was used as a reference surface. Surface deactivation and nickel stripping were achieved using 1 M ethanolamine and 350 mM ethylenediaminetetraacetic acid (EDTA), respectively.
(§3) Fragment screening was conducted by injecting 500 µM fragments diluted in running buffer (HBS-P+ with 1 mM TCEP and 2% (v/v) dimethyl sulfoxide (DMSO)) over all flow-channels for 30 s at 30 µL/min^−1. To account for surface drift, 50 µM of a control compound (Suramin) was injected every 15 fragment injections, and blank injections were performed every 5 fragments. Responses were analyzed by blank subtraction, reference subtraction (FC1), solvent correction, molecular weight adjustment, and drift correction using Biacore T200 Evaluation Software v3.2.1. The binding threshold for fragment hits was set based on the Suramin-binding response level.
The data was solvent-corrected, reference-subtracted (FC1), and blank-subtracted using the T200 Evaluation Software v3.2.1. Sensorgrams were subsequently replotted using Graphpad v.9 software.

[3] = biological target: T4, His-SUMO-hTRIM21 PRY-SPRY (Homo sapiens, UniProt P19474); assay: SPR fragment screening, human TRIM21 PRY-SPRY
T4 construct: Human TRIM21 PRY-SPRY domain (residues V287-I465, UniProt-ID: P19474); made in house; host or cells: E. coli BL21(DE3)
T4 sequence (P19474 287-465): as above
Protocol: as §2, §3

[4] = single dose 500 µM fragment, relative response, suramin reference threshold 100 relative RU

Tm-shift mTRIM21 ([1]; 2 mM compound, 8 μM protein) | Tm-Shift hTRIM21 ([2]; 2 mM compound, 8 μM protein) | SPR mTRIM21 (Response) (His-mTRIM21 PRYSPRY; [4]) | SPR hTRIM21 (Response) [3, 4] | SMILES | Tm-shift mTRIM21 [1] | Tm-Shift hTRIM21 [2] | SPR mTRIM21 (Response) (His-mTRIM21 PRYSPRY) | SPR hTRIM21 (Response) [3]
-0.1 °C | -0.2 °C | 65.26 | 80.74 | CS(=O)(=O)Cc1nc2ccccc2[nH]1 [Fragment Z126932614] |  |  |  | 
-0.6 °C | -0.7 °C | 54.53 | 48.46 | CCCn1c(NC(=O)CC)nc2ccccc21 [Fragment Z29077827] |  |  |  | 
-0.4 °C | -0.1 °C | 60.46 | 49.09 | O=C(O)C1CCCN(C(=O)Cc2ccc(F)cc2)C1 (centres unmarked) [Fragment Z85893853] |  |  |  | 
-0.5 °C | -0.2 °C | 46.34 | 48.3 | CS(=O)(=O)NCCc1ccc(F)cc1 [Fragment Z45705015] |  |  |  | 
-0.1 °C | 0.1 °C | 35.15 | 36.54 | Cc1c(C(C)NS(C)(=O)=O)cnn1C (centres unmarked) [Fragment Z369263636] |  |  |  | 
-0.3 °C | -0.3 °C | 37.9 | 38.23 | COCC(=O)NCc1ccccc1 [Fragment Z31478538] |  |  |  | 
-0.4 °C | 0 °C | 49.37 | 49.74 | CNC(=O)c1ccc(S(N)(=O)=O)cc1 [Fragment Z165170770] |  |  |  | 
-0.3 °C | -0.4 °C | 79.62 | 75.76 | CC(=O)NCCc1ccccc1C [Fragment Z52314092] |  |  |  | 
-0.2 °C | -0.1 °C | 48.28 | 44.97 | CCc1nc(Cn2ccccc2=O)no1 [Fragment Z1162778919] |  |  |  | 
-0.2 °C | 0 °C | 27.91 | 27.61 | CCC(=O)N1CCCC(NS(C)(=O)=O)C1 (centres unmarked) [Fragment Z405825414] |  |  |  | 
-0.5 °C | -0.1 °C | 58.83 | 60.94 | O=C1CN(Cc2ccccc2)CC(=O)N1 [Fragment Z3220108246] |  |  |  | 

Second part, the molecule before the results:

SMILES | Tm-shift mTRIM21 ([1]; 2 mM compound, 8 μM protein) | Tm-Shift hTRIM21 ([2]; 2 mM compound, 8 μM protein) | SPR mTRIM21 (Response) (His-mTRIM21 PRYSPRY; [4]) | SPR hTRIM21 (Response) [3, 4] | Tm-shift mTRIM21 [1] | Tm-Shift hTRIM21 [2] | SPR mTRIM21 (Response) (His-mTRIM21 PRYSPRY) | SPR hTRIM21 (Response) [3]
O=C(O)COCc1ccccc1 [Fragment Z993967070] |  |  |  |  | -0.3 °C | 0 °C | 63.84 | 56.18
O=C(NC1CC1)c1ccc2c(c1)OCO2 [Fragment Z32367954] |  |  |  |  | -0.3 °C | -0.6 °C | 59.37 | 68.73
CCc1nnc(NC(=O)C2CCCO2)s1 (centres unmarked) [Fragment Z26823525] | -0.2 °C | -0.4 °C | 54.46 | 48.81 |  |  |  | 
Cc1cc(N2CCCCC2)nc(CO)n1 [Fragment Z1980894300] | -0.2 °C | 0 °C | 77.01 | 66.59 |  |  |  | 
OC1CN(C(c2ccccc2)c2ccccc2)C1 [Fragment Z1696844792] | -0.5 °C | -0.8 °C | 107.8 | 122.6 |  |  |  | 
CN(C)c1ccncc1 [Fragment Z1245793018] | 0.1 °C | 0 °C | 131.3 | 47.83 |  |  |  | 
Cc1nsc(N2CCCNCC2)n1 [Fragment Z1578665941] | -0.1 °C | 0.1 °C | 154 | 59.22 |  |  |  | 
Cc1nccn1Cc1cccc(C#N)c1 [Fragment Z319545618] |  |  |  |  | -0.3 °C | 0 °C | 30.53 | 11.39
NC(=S)Nc1ccccc1OC(F)(F)F [Fragment Z291279160] |  |  |  |  | -0.4 °C | -0.2 °C | 37.66 | 45.42
CC(NC(=O)C1CC1)c1cccnc1 (centres unmarked) [Fragment Z220996120] | -0.1 °C | 0 °C | 171.5 | 149.8 |  |  |  | 
Cc1cccc(C(=O)N2CCC(C(N)=O)CC2)c1 [Fragment Z32400357] | -0.4 °C | -0.1 °C | 57.58 | 52.75 |  |  |  | 
CN(C)c1noc(C2CCNCC2)n1 [Fragment Z1742054999] |  |  |  |  | 0 °C | -0.2 °C | 84.81 | 41.66
CCOC(=O)CN1CCS(=O)(=O)CC1 [Fragment Z793778804] | 0 °C | 0.1 °C | 30.52 | 29.17 |  |  |  | 
CC(=O)N1Cc2ccc(N)cc2C1 [Fragment Z1354416068] | 0 °C | 0.1 °C | 104.9 | 107.4 |  |  |  | 
O=C(c1ccco1)N1CCN(C(=O)C2CC2)CC1 [Fragment Z32327641] | -0.2 °C | 0 °C | 37.82 | 35.48 |  |  |  | 
NC(=O)N1CCN(C(=O)c2ccco2)CC1 [Fragment Z198194396] | -0.2 °C | -0.2 °C | 38.54 | 34.19 |  |  |  | 
CN(C)C(=O)c1ccc2c(c1)CCCN2 [Fragment Z1222331430] |  |  |  |  | -0.2 °C | -0.2 °C | 51.36 | 70.74
Cl.O=C(c1cn[nH]c1)N1CCCC1 [Fragment Z1266933824] |  |  |  |  | -0.3 °C | -0.1 °C | 127.7 | 193.6
CC(=O)N1CCCC2(CCCCCC2)C1 [Fragment Z1275599911] | -1.3 °C | -0.9 °C | 32.73 | 30.21 |  |  |  | 
O=S1(=O)CCN(Cc2ccco2)CC1 [Fragment Z1568344634] | -0.2 °C | 0 °C | 60.76 | 40.64 |  |  |  | 
CCc1ncc(CNC)s1 [Fragment Z1267773633] | -0.4 °C | -0.4 °C | 58.5 | 45.3 |  |  |  | 
CN1CCOC(CNc2nccs2)C1 (centres unmarked) [Fragment Z1002247062] | -0.1 °C | -0.2 °C | 105 | 20.86 |  |  |  | 
CCC(=O)Nc1nc(C)cs1 [Fragment Z30820160] |  |  |  |  | -0.5 °C | -0.2 °C | 15.6 | 46.05
CC(C)N(C)c1ncnc2c1cnn2C [Fragment Z328695024] | -0.6 °C | -0.6 °C | 47.77 | 48.11 |  |  |  | 

Reference: PMC12166061, “Crystallographic fragment screening reveals ligand hotspots in TRIM21 PRY-SPRY domain” (Communications Chemistry, 2025)
